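96-well plates; 48 h exposure; 5 concentrations. Endpoints by linear interpolation between flanking doses. Not reached: highest tested concentration assigned. GI50: concentration for 50% inhibition of growth.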 The source made the active and inactive calls. Cut-off read from the data, not from the text of the source: active = GI50 up to about 1.1 µM and inactive = higher.
Assays:
Test in all cases: NCI anticancer screen, dose series, 48 h
NCI-H522 = test system: NCI-H522
SK-MEL-2 = test system: SK-MEL-2
HOP-92 = test system: HOP-92
786-0 = test system: 786-0
HCT-116 = test system: HCT-116
NCI/ADR-RES = test system: NCI/ADR-RES
SNB-19 = test system: SNB-19
MDA-MB-435 = test system: MDA-MB-435
NCI-H460 = test system: NCI-H460
M14 = test system: M14
LOX IMVI = test system: LOX IMVI
UACC-257 = test system: UACC-257
RPMI-8226 = test system: RPMI-8226
MCF7 = test system: MCF7
PC-3 = test system: PC-3
K562 = test system: K562
NCI-H23 = test system: NCI-H23
SNB-75 = test system: SNB-75
A498 = test system: A498
Malme-3M = test system: Malme-3M

SMILES	GI50 (NCI-H522)	GI50 (SK-MEL-2)	GI50 (HOP-92)	GI50 (786-0)	GI50 (HCT-116)	GI50 (NCI/ADR-RES)	GI50 (SNB-19)	GI50 (MDA-MB-435)	GI50 (NCI-H460)	GI50 (M14)	GI50 (LOX IMVI)	GI50 (UACC-257)	GI50 (RPMI-8226)	GI50 (MCF7)	GI50 (PC-3)	GI50 (K562)	GI50 (NCI-H23)	GI50 (SNB-75)	GI50 (A498)	GI50 (Malme-3M)
COc1ccc(NC(=S)c2ccoc2C)cc1CC(=O)OC(C)C	36.3 µM (inactive)	18.2 µM (inactive)	20.6 µM (inactive)	> 100 µM (inactive)	55.8 µM (inactive)	17.5 µM (inactive)	61.5 µM (inactive)	46.2 µM (inactive)	31.8 µM (inactive)	24.9 µM (inactive)	18.8 µM (inactive)	33.4 µM (inactive)	50.8 µM (inactive)	22 µM (inactive)	21.9 µM (inactive)	34.8 µM (inactive)	46.2 µM (inactive)	15.7 µM (inactive)	–	–
O=C(O)c1cnc(-n2[nH]c3c(c2=O)CCCC3)[nH]c1=O	> 100 µM (inactive)	> 100 µM (inactive)	83.9 µM (inactive)	> 100 µM (inactive)	> 100 µM (inactive)	> 100 µM (inactive)	> 100 µM (inactive)	> 100 µM (inactive)	> 100 µM (inactive)	> 100 µM (inactive)	–	> 100 µM (inactive)	> 100 µM (inactive)	–	> 100 µM (inactive)	> 100 µM (inactive)	> 100 µM (inactive)	–	> 100 µM (inactive)	> 100 µM (inactive)
O=P1(c2ccccc2)c2ccccc2CCc2ccccc21	37.1 µM (inactive)	49.3 µM (inactive)	35.6 µM (inactive)	> 100 µM (inactive)	53 µM (inactive)	–	> 100 µM (inactive)	57.7 µM (inactive)	–	70 µM (inactive)	> 100 µM (inactive)	> 100 µM (inactive)	50.6 µM (inactive)	> 100 µM (inactive)	50.5 µM (inactive)	–	> 100 µM (inactive)	43.8 µM (inactive)	–	–
CCOc1cccc(/C=N/N=C2\C(=O)Nc3c(Cl)cc(Cl)cc32)c1O	–	83.8 µM (inactive)	75.7 µM (inactive)	74.6 µM (inactive)	74.3 µM (inactive)	33.3 µM (inactive)	> 100 µM (inactive)	44.8 µM (inactive)	37 µM (inactive)	73.3 µM (inactive)	32.5 µM (inactive)	> 100 µM (inactive)	–	57.5 µM (inactive)	44.2 µM (inactive)	41.1 µM (inactive)	50.1 µM (inactive)	40.9 µM (inactive)	36.6 µM (inactive)	> 100 µM (inactive)
COC(=O)C1c2cc3c(cc2C(OC2OC(C)C(OC)C(C)(OC)C2OC)CC1(C)O)C(=O)c1c(O)cc2c(c1C3=O)OC1OC2(C)C(O)C([N+](C)(C)[O-])C1O (centres undefined)	0.055 µM (active)	0.137 µM (active)	0.144 µM (active)	0.111 µM (active)	0.0197 µM (active)	–	0.126 µM (active)	0.158 µM (active)	0.0644 µM (active)	0.482 µM (active)	0.0354 µM (active)	0.182 µM (active)	0.122 µM (active)	0.149 µM (active)	0.355 µM (active)	0.0324 µM (active)	0.105 µM (active)	0.179 µM (active)	0.184 µM (active)	0.0581 µM (active)
NC(=O)C(=O)C(c1ccccc1)S(=O)(=O)Cc1ccccc1 (centres undefined)	> 100 µM (inactive)	> 100 µM (inactive)	> 100 µM (inactive)	> 100 µM (inactive)	> 100 µM (inactive)	> 100 µM (inactive)	> 100 µM (inactive)	> 100 µM (inactive)	> 100 µM (inactive)	> 100 µM (inactive)	> 100 µM (inactive)	> 100 µM (inactive)	> 100 µM (inactive)	> 100 µM (inactive)	> 100 µM (inactive)	> 100 µM (inactive)	> 100 µM (inactive)	> 82 µM (inactive)	–	–
O=C(O)CSc1cc(-c2ccccc2)nc2ccccc12	22.6 µM (inactive)	26.5 µM (inactive)	72.3 µM (inactive)	47.1 µM (inactive)	5.41 µM (inactive)	34.2 µM (inactive)	> 100 µM (inactive)	13.3 µM (inactive)	38.7 µM (inactive)	50.2 µM (inactive)	46 µM (inactive)	71.9 µM (inactive)	–	–	35.2 µM (inactive)	33.3 µM (inactive)	44.7 µM (inactive)	–	28.5 µM (inactive)	22.8 µM (inactive)
CCc1ccc2oc(-c3cc(O)c(-c4nc5cc(CC)ccc5o4)cc3O)nc2c1	–	> 100 µM (inactive)	> 100 µM (inactive)	> 100 µM (inactive)	> 100 µM (inactive)	> 100 µM (inactive)	> 100 µM (inactive)	> 100 µM (inactive)	> 100 µM (inactive)	> 100 µM (inactive)	> 100 µM (inactive)	–	> 100 µM (inactive)	> 100 µM (inactive)	> 100 µM (inactive)	> 100 µM (inactive)	> 100 µM (inactive)	86.5 µM (inactive)	> 100 µM (inactive)	–

— ChEMBL document CHEMBL1201862, “PubChem BioAssay data set” (2004)
